Among the data in patent publication US9133146B2, “Benzodioxane inhibitors of leukotriene production” (Boehringer Ingelheim International GmbH, priority 2011, dated 2015) are IC50 values, retold here.

For the assay, the system named is synthesis of LTB4 in human whole blood. Description: human whole blood (HWB) assay, LTB4 production inhibition after calcimycin. As to conditions: heparinized human whole blood, calcimycin 20 μM, 37° C., plasma LTB4. The assay is classed as cell-based. Here is the method:
The compounds of the invention are additionally tested in a human whole blood (HWB) assay to determine their ability to inhibit the synthesis of LTB4 in a cellular system. Compounds are combined with heparinized human whole blood and incubated for 15 minutes at 37° C. Calcimycin (20 μM final, prepared in phosphate-buffered saline, pH 7.4) is then added and the mixture is incubated for another 30 minutes at 37° C. The samples are centrifuged for 5 min at low speed (1500×g) and the plasma layer is removed. Plasma LTB4 concentrations are then measured using an antibody-based homogenous time-resolved fluorescence method (CisBio, Bedford, Mass.). In general, the preferred potency range (IC50) of compounds in the HWB assay is between 10 nM to 10 μM, the more preferred potency range is 10 nM to 1 μM, and the most preferred potency range is 10 nM to 100 nM.
A word on the IC50: it is the concentration that inhibits the measured activity by half. In the case of `CC(C)(O)C(=O)NC1CCN(Cc2ccc([C@H]3COc4ccccc4O3)cc2)CC1` [Example 220, N-(1-{4-[(2S)-2,3-dihydro-1,4-benzodioxin-2-yl]benzyl}piperidin-4-yl)-2-hydroxy-2-methylpropanamide], the IC50 was found to be 91.1 nM.

Regarding `O[C@@H]1CCN(Cc2ccc(C3COc4ccccc4O3)cc2)C1` (mixture of isomers) [Example 9, (3S)-1-[4-(2,3-dihydro-1,4-benzodioxin-2-yl)benzyl]pyrrolidin-3-ol], the IC50 amounted to 285 nM.

`c1ccc2c(c1)OC[C@H](c1ccc(CN3CCC[C@H]4CCCCC43)cc1)O2` (stereo in doubt) [Example 85, (4aR,8aS)-1-{4-[(2S)-2,3-dihydro-1,4-benzodioxin-2-yl]benzyl}decahydroquinoline]: the IC50 was 305 nM.

Take `c1cnc2c(c1)OC[C@H](c1ccc(CN3[C@H]4CC[C@@H]3CC4)cc1)O2` [Example 145, (3S)-3-{4-[(1s,4s)-7-azabicyclo[2.2.1]hept-7-ylmethyl]phenyl}-2,3-dihydro[1,4]dioxino[2,3-b]pyridine]: the IC50 was determined as 28.4 nM.
